Experimental data reported in patent US10344330B2, “Glatiramer acetate response biomarker mRNA potency assay” (Mylan Inc., priority 2013, dated 2019).

B1: MBP: myelin basic protein, a negative control (protein, UniProt P02686 1-304, looked up)
Myelin basic protein: MGNHAGKRELNAEKASTNSETNRGESEKKRNLGELSRTTSEDNEVFGEADANQNNGTSSQDTAVTDSKRTADPKNAWQDAHPADPGSRPHLIRLFSRDAPGREDNTFKDRPSESDELQTIQEDSAATSESLDVMASQKRPSQRHGSKYLATASTMDHARHGFLPRHRDTGILDSIGRFFGGDRGAPKRGSGKDSHHPARTAHYGSLPQKSHGRTQDENPVVHFFKNIVTPRTPPPSQGKGRGLSLSRFSWGAEGQRPGFGYGGRASDYKSAHKGFKGVDAQGTLSKIFKLGGRDSRSGSPMARR

What was measured:
[1] = tested on: mouse IL-13 mRNA in primary LN cells; assay: Validation: mouse IL-13 mRNA by real-time PCR in LN cells of GA-immunized SJL/J mice (Example IV); assay type: cell-based; conditions: for IL-13 mRNA Fold Change: normalized to GAPDH; for induction of IL-13 mRNA: 20 μg/mL, 6 hours
Procedure: Three experiments were conducted using one batch of GA (Mylan GMA). The primary LN cells were stimulated by incubation with 6 concentrations (0.3 to 20 μg/mL) of the GA for 6 hours at 37° C. Total RNA was isolated from LN cells stimulated with GA or controls. cDNA was synthesized from the RNA and the mRNA levels of seven mouse cytokines, IL-2, IL-4, IL-5, IL-10, IL-13, interferon (IFN)-γ and tumor necrosis factor (TNF)-α, were quantitatively measured by a real-time PCR method.
Female SJL/J mice at 8-9 weeks of age were immunized by injection into four footpads using a 1 mL syringe with a 27-G, ½-inch needle. Each mouse received a total injection volume of 0.1 mL of GMA emulsified in CFA (about 10 μL into each of the front footpads and 40 μL into each of the hind footpads). Animals were immunized on Day 0. After injection, animals were placed back in their cages and housed ≤6 animals per cage.
Immunized animals were sacrificed by cervical dislocation on Day 10 following immunization. […] After centrifugation at about 200×g for 10 minutes at 4° C., the cell pellet was re-suspended in 40 mL of DCCM-1 medium for cell counting. A Trypan blue exclusion method was used to determine the cell density of viable cells in the suspension. After cell counting, the LN cells were suspended in enriched DCCM-1 medium at density of 7.5×10^6 cells/mL. LN cells (0.12 mL) were plated into each well of 96-well tissue culture plates.
Dilutions of GA (Mylan GMA) were prepared using enriched DCCM-1 medium as the diluent. GA dilutions (0.12 mL) were added in the assigned wells of 96-well tissue culture plates. The same volume of LN cells (0.12 mL) isolated from immunized animals was added to the assigned wells. A positive control and a negative control were always performed in the same assay by treating LN cells with 2.5 μg/mL ConA and 10 μg/mL MBP, respectively. The LN cells with mock stimulation protocols (enriched DCCM-1 medium) were used to monitor the background mRNA level of a cytokine. The plates were incubated at 37° C. in a humidified 5% CO2 incubator for 6 hr.
At the end of incubation time, culture medium from stimulated cells was removed by aspiration and the cells were lysed using Qiagen or Promega lysis buffer. The lysate was transferred to an RNeasy Mini column (Qiagen) or wells of the SV 96 Binding Plate (Promega) for RNA isolation and cDNA synthesis. All tested samples were run in triplicate.
The SV 96 Total RNA Isolation System (Promega; Cat. No. Z3505) was used for total RNA isolation. Assay procedures were carried out according to each manufacturer's protocol. RNA samples were stored at −70° C. until use. […] The assay procedure was carried out according to the manufacturer's protocol.
The plate was centrifuged at 2000 rpm for 2 minutes at 4° C. to spin down the contents and eliminate air bubbles. Samples were prepared and run in a 96-well plate using a Life Technologies Real-Time PCR system (previously Applied Biosystems; Model No. 7500) according to the manufacturer's recommendation. The mix for the reference gene was prepared in the same way using the reference gene primer.
A relative quantitation method was used to analyze changes in mIL-2, mIL-4, mIL-5, mIL-10, mIL-13, mIFN-γ and TNF-α expression in GA treated samples relative to the untreated control (Enriched DCCM-1 treated) samples using the following program:
Levels of mouse cytokine amplicons were normalized to an internal probe level (GAPDH) from the same samples. The following equations were used to calculate the relative increase in response to GA stimulation compared to the control sample (Enriched DCCM1 sample): […]

[2] = tested on: mIFN-γ mRNA in primary LN cells; assay: mIFN-γ mRNA by real-time PCR in stimulated LN cells of immunized (SJL/J×BALB/C)F1 mice (Example I); assay type: cell-based, mouse
Procedure: For each of the three experiments summarized in Table 1, female (SJL/J×BALB/C) F1 hybrid (Jackson Laboratory) mice were immunized by footpad injection with either 250 μg GMA (Mylan Pharmaceuticals, Inc.) and CFA (Sigma Aldrich), or Mannitol and CFA (as a negative control). The GA solution was diluted to 5 mg/mL with Dulbecco's Phosphate-buffered saline. A dose solution was then prepared by mixing the diluted GA solution (5 mg/mL) and CFA (1:1) until well-emulsified. Each mouse received a total injection volume of 0.1 mL (250 μg GA). Animals were immunized on Day 0. Immunized animals were sacrificed via cervical dislocation on Day 10 following immunization. […] The LN were washed 3 times with −5 mL of RPMI medium, and the LN cells isolated by pressing the LN with a syringe plunger. […] The cell suspension was centrifuged at about 200×g for 10 minutes at about 4° C. and re-suspended in ice cold enriched DCCM-1 medium. The LN cells (2.5×10^6 cells/cm^2) were plated in the wells of a 48-well tissue culture plate and stimulated with GA or controls.
Expression of cytokine mRNA was quantitatively analyzed using a Real-Time PCR system (7500, Applied Biosystems).
(DCCM1 from Beit Haemek Ltd.; Cat. No. 05 010 1A). There was no MBP treatment for the 2-hour groups.
Group 1B animals were female (SJL/J×BALB/C) F1 hybrid (Jackson Laboratory) mice immunized by footpad injection with either 250 μg GA and CFA, or Mannitol and CFA (as a negative control). A dose solution was prepared by mixing a diluted GA solution (5 mg/mL) and CFA (1:1). Each mouse received a total injection volume of […] (250 μg GA). Animals were immunized on Day 0. Immunized animals were sacrificed via cervical dislocation on Day 10 following immunization. Lymph nodes from immunized mice were removed and isolated. LN cells (2.5×10^6 cells/cm^2) were plated in the wells of a 48-well tissue culture plate for stimulation with GA.
Expression of cytokine mRNA was quantitatively analyzed 4 and 6 hours after using a Real-Time PCR system (7500, Applied Biosystems).

[3] = Experiment 1, GA-immunized (SJL/J×BALB/C)F1, 2 hour post stimulation, GA 10, ConA 2.5 μg/mL
[4] = Experiment 1, GA-immunized (SJL/J×BALB/C)F1, 4 hour post stimulation, GA 10, MBP 10, ConA 2.5 μg/mL
[5] = Experiment 1, GA-immunized (SJL/J×BALB/C)F1, 6 hour post stimulation, GA 10, MBP 10, ConA 2.5 μg/mL
[6] = Experiment 1, GA-immunized (SJL/J×BALB/C)F1, 24 hour post stimulation, GA 10, MBP 10, ConA 2.5 μg/mL
[7] = Group 1B (GA + CFA), 4 hours post-stimulation, GA 10, MBP 10, ConA 2.5 μg/mL, reference GAPDH
[8] = Group 1B (GA + CFA), 6 hours post-stimulation, GA 10, MBP 10, ConA 2.5 μg/mL, reference GAPDH
[9] = Group 2B (Mannitol + CFA), 4 hours post-stimulation, GA 10, MBP 10, ConA 2.5 μg/mL, reference GAPDH
[10] = Group 2B (Mannitol + CFA), 6 hours post-stimulation, GA 10, MBP 10, ConA 2.5 μg/mL, reference GAPDH

Molecule | IL-13 mRNA Fold Change ([1]; Experiment 1, 2.5 μg/mL) | IL-13 mRNA Fold Change ([1]; Experiment 2, 2.5 μg/mL) | IL-13 mRNA Fold Change ([1]; Experiment 3, 2.5 μg/mL) | mIFN-γ mRNA Level [2, 3] | mIFN-γ mRNA Level [2, 4] | mIFN-γ mRNA Level [2, 5] | mIFN-γ mRNA Level [2, 6] | mIFN-γ mRNA Level [2, 7] | mIFN-γ mRNA Level [2, 8] | mIFN-γ mRNA Level [2, 9] | mIFN-γ mRNA Level [2, 10] | induction of IL-13 mRNA ([1]; SJL/J, Exp 1) | induction of IL-13 mRNA ([1]; SJL/J, Exp 2) | induction of IL-13 mRNA ([1]; SJL/J, Exp 3) | induction of IL-13 mRNA (in words) ([1]; SJL/J, different concentrations of GA vs unstimulated LN cells) | IL-13 mRNA Fold Change ([1]; Experiment 1, 10 μg/mL) | IL-13 mRNA Fold Change ([1]; Experiment 2, 10 μg/mL) | IL-13 mRNA Fold Change ([1]; Experiment 3, 10 μg/mL) | IL-13 mRNA expression level in response to MBP treatment ([1]; SJL/J, MBP 10 μg/mL, all PCR runs)
Concanavalin A [ConA, reference compound] | 40.9 fold | 32.4 fold | 50.9 fold | 40.9 fold change vs control | 49.3 fold change vs control | 18.2 fold change vs control | 0.4 fold change vs control | 29.5 fold change vs control | 3.0 fold change vs control | 15.5 fold change vs control | 8.9 fold change vs control | – | – | – | – | – | – | – | –
L-glutamic acid polymer with L-alanine, L-lysine and L-tyrosine, acetate (salt) [GA] | – | – | – | 1.3 fold change vs control | 2.1 fold change vs control | 4.6 fold change vs control | 4.6 fold change vs control | 7.0 fold change vs control | 2.4 fold change vs control | 1.2 fold change vs control | 1.8 fold change vs control | 17.6 fold | 21.3 fold | 33.9 fold | robust induction | – | – | – | –
B1 | – | – | – | – | 0.8 fold change vs control | 0.2 fold change vs control | 0.6 fold change vs control | 0.9 fold change vs control | 0.6 fold change vs control | 1.1 fold change vs control | 0.9 fold change vs control | – | – | – | – | 0.9 fold | 1.4 fold | 1.2 fold | ≤ 2 fold
